Data: US8492384B2 (Korea Institute of Science and Technology, priority 2008, dated 2013)

Key:
Type in all cases: cell-based
[1] = target: T1, α1G T-type calcium channels (Homo sapiens, UniProt O43497); assay: T-type calcium channel activity using electrophysiological whole-cell patch-clamp technique; details: percent inhibition of inward peak currents, HEK293 cells expressing α1G, head prints 100 μM
T1 construct: host or cells: HEK293

[2] = target: T1, α1G T-type calcium channels; assay: T-type calcium channel activity using the FDSS6000 (HTS, Fluo-3/AM, KCl-induced intracellular calcium change); details: percent inhibition at 10 μM, HEK293 cells stably expressing α1G T-type calcium channels and Kir2.1, KCl 75 mM activation; for inhibition at 10 µM: read-out: FDSS (%, 10 μM)
Experimental: (§1) The novel compounds of the present invention presented as the formula 1 were tested for their antagonistic activities against T-type calcium channels using the methods described below. More specifically, the synthesized compounds were screened as follows: First, as a primary screening, the compounds having 40% or higher of antagonistic activities against T-type calcium channels were selected using the FDSS6000, a high throughput screening (HTS) device. Then, as a secondary screening, the IC50 (effective inhibitory concentration) values were obtained using the electrophysiological methods.
1) Methods for the Measurements of T-Type Calcium Channel Activity Using the FDSS6000
12 to 24 hours prior to the FDSS-based HTS assay, HEK293 cells stably expressing both α1G T-type calcium channels and Kir2.1 channels (α1G cell line: KCTC 10519BP, KRIBB (Korea Research Institute of Bioscience and Biotechnology) (GENE BANK) were seeded onto the 96-well plate coated with poly-L-lysine (0.05 mg/mL) at a density of 4×10^4 cells/well using a cell distributor (Titertek, USA). On the following day, the cells attached onto the 96-well plate were washed three times with a HEPES-buffered solution (150 mM NaCl, 5 mM KCl, 1 mM MgCl2, 2 mM CaCl2, 10 mM HEPES, 10 mM glucose, and pH 7.4) using an automatic 96-well plate washer (BioTek, USA), and then labeled with a fluorescent calcium indicator dye, Fluo-3/AM (5 μM) and 0.001% Pluronic F-127 in a HEPES-buffered solution at room temperature for 1 hour and then washed again with a HEPES-buffered solution twice. 10 minutes prior to the FDSS6000 measurements, the cells was washed with a HEPES-buffered solution containing 10 mM CaCl2 once and the final volume was adjusted.
In addition to the 96-well plates with cells, the two drug plates were prepared: one containing KCl (final concentration of 75 mM) for the activation of T-type calcium channels, and the other containing testing compounds (blocking agents of T-type calcium channels). Since most cell-based HTS devices are provided with a liquid application system for drug injection but not with a liquid absorption system, the KCl solution and the blocking agents for screening were prepared at concentrations five times higher than the final concentrations in the 10 mM CaCl2 HEPES-buffered solution, and then diluted in the cell plate, and the activities were measured. The specific method of the FDSS6000 measurements is as follows: For the FDSS6000 measurements, after the 20-sec baseline recordings, cells were preincubated with drugs for 75 seconds and the change in intracellular calcium concentration induced by KCl was measured. The percent inhibition by a test compound was calculated as integrated values of 340/380 fluorescent ratio of untreated and drug-treated cells. The control drug was 10 μM of Mibefradil®.
In details, cells were selectively exposed to 340 nm and 380 nm light excited by 4 xenon lamps installed in FDSS6000 using a computer-controlled filter wheel. The emitter fluorescence light through a 515 nm long-pass filter was passed by a freezing digital CCD camera mounted on the device. Data were collected every 1.23 seconds, and an average value of 340/380 fluorescent ratio for each well was obtained using a digital fluorescent analyzer. Data acquisition and analysis were performed using a program provided by Hamamatsu Photonics.

[3] = target: T1, α1G T-type calcium channels; assay: T-type calcium channel activity using electrophysiological whole-cell patch-clamp technique; details: HEK293 cells expressing α1G T-type calcium channels
Experimental: as §1
2) Methods for the Measurements of T-Type Calcium Channel Activity Using an Electrophysiological Whole-Cell Patch-Clamp Technique
HEK293 cells stably expressing T-type calcium channels were cultured in DMEM (Dulbecco's modified Eagle's medium) containing 10% (v/v) fetal bovine serum and 1% penicillin/streptomycin (v/v) in humidified 5% CO2 at 36.5° C. Cells expressing α1GT-type calcium channels were selected using G-418 (0.5 mg/mL) in the culture medium. The culture medium was replaced with a fresh one every 3-4 days, and cells were subcultured every week.
Cells were seeded onto the coverglass coated with poly-L-lysine (0.5 mg/mL) for the measurements of T-type calcium channel activity 2-7 days prior to the recordings. Whole-cell recordings of T-type calcium channel currents were performed using an EPC-9 patch clamp amplifier (HEKA, Germany). Whole-cell currents were recorded using micropipettes with resistance of 3-4 MΩ with the pipette (intracellular) solution containing (in mM): 130 KCl, 11 EGTA, 5 Mg-ATP, and 10 HEPES, pH to 7.4 and with the bath (extracellular) solution containing (in mM): 140 NaCl, 2 CaCl2, and 10 HEPES, pH to 7.4. The inward currents of T-type calcium channels were evoked by the test pulses of −30 mV for 50 ms at a holding potential of −100 mV every 10 seconds.
Each compound was dissolved in dimethylsulfoxide (DMSO) as 10 mM stock solutions and diluted in the bath solution to 10 μM (containing 0.1% DMSO). […] More specifically, each compound was perfused to the bath for about 30-60 seconds, and the inhibition of the inward peak currents by a test compound was calculated as a percent inhibition from which the IC50 values were determined.

T1 sequence (O43497 whole entry): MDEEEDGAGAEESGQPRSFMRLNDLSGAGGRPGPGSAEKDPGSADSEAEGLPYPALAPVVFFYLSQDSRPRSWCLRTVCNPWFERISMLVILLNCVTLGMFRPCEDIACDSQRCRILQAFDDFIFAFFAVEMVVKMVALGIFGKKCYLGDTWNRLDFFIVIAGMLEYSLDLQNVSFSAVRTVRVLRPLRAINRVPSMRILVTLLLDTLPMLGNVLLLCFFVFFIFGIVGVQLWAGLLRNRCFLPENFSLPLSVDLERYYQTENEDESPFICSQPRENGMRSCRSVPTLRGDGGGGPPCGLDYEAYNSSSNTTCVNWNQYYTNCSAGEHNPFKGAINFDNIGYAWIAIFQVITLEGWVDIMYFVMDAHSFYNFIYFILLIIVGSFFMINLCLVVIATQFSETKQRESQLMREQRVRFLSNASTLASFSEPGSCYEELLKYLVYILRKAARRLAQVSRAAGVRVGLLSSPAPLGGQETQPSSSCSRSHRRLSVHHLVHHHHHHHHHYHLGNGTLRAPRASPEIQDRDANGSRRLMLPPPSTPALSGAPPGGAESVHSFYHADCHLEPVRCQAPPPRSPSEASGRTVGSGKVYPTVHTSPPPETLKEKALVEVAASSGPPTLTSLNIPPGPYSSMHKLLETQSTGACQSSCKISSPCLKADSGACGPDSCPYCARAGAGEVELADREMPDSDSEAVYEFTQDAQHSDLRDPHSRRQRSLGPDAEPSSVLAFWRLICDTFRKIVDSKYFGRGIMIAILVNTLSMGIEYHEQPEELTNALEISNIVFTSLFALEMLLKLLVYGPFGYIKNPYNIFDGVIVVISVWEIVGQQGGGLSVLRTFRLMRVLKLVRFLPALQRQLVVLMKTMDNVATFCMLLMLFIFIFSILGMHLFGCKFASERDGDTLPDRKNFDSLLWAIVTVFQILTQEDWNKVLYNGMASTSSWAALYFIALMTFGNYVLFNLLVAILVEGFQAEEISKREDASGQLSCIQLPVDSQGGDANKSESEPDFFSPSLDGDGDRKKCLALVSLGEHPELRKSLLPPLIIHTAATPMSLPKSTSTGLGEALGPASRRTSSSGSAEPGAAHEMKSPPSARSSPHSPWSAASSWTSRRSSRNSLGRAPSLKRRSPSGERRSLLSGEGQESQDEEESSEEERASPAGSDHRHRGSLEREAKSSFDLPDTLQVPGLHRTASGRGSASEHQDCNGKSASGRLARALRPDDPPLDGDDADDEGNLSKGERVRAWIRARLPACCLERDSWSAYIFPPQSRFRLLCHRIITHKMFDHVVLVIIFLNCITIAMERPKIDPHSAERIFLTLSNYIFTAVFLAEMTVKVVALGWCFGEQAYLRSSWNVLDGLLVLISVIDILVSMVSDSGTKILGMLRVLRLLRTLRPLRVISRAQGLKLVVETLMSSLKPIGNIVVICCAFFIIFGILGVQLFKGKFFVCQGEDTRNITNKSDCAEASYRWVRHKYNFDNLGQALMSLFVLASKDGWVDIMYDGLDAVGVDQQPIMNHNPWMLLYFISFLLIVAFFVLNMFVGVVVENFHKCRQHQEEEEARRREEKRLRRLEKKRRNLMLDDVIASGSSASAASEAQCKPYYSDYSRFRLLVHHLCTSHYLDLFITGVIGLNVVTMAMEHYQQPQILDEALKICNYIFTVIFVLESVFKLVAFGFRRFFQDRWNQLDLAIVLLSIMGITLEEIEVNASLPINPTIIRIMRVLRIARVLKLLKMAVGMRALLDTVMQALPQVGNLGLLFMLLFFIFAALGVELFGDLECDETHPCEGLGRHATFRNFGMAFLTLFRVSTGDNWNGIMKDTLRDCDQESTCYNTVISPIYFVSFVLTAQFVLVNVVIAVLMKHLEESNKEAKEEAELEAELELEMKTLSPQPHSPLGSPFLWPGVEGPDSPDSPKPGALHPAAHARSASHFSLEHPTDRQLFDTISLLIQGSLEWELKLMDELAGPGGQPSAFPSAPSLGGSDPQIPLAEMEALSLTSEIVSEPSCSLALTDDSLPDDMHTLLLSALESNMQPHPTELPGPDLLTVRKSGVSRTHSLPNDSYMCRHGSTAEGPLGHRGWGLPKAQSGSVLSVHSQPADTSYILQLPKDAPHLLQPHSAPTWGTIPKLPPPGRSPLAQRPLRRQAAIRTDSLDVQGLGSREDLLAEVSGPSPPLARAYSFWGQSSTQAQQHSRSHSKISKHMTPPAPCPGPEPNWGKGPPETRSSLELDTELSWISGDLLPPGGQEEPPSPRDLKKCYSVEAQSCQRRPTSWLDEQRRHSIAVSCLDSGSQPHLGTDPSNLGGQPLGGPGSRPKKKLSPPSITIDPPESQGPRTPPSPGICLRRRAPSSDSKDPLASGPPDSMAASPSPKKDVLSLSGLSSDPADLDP

Molecule | HEK293 (%, 100 μM) [1] | FDSS (%, 10 μM) [2] | IC50 [3] | inhibition at 100 µM [1] | inhibition at 10 µM [2]
1-N-[4-(4-chlorophenyl)(phenyl)methylpiperazin-1-yl]carbonylethyl-4-methylimidazole [Compound No. 45] | 64.7 ± 2.2% | 47.90% | 5.46 ± 0.57 µM |  | 
1-N-{2-[4-(4-chlorophenyl) (phenyl)methylpiperazin-1-yl]ethyl}carbamoylethyl-2-phenylimidazole [Compound No. 63] | 89.1 ± 1.3% | 58.64% | 2.11 ± 0.11 µM |  | 
1-N-{2-[4-(4-chlorophenyl) (phenyl)methylpiperazin-1-yl]ethyl}carbamoylethyl-4-phenylimidazole [Compound No. 64] | 95.8 ± 0.7% | 60.48% | 1.39 ± 0.07 µM |  | 
Cc1cccc(N2CCN(C(=O)CCn3cnc(-c4ccccc4)c3)CC2)c1C [Compound No. 3, 1-N-[4-(2,3-dimethylphenyl)piperazin-1-yl]carbonylethyl-4-phenylimidazole] |  |  | 4.89 ± 0.44 µM | 64.7 ± 2.2% | 55.5%
O=C(CCn1cnc(-c2ccccc2)c1)N1CCN(Cc2ccc(Cl)cc2)CC1 [Compound No. 5, 1-N-[4-(4-chlorobenzyl)piperazin-1-yl]carbonylethyl-4-phenylimidazole] |  |  | 3 ± 0.26 µM | 86.5 ± 1.8% | 64.7%
O=C(CCn1ccnc1-c1ccccc1)N1CCN(C(c2ccccc2)c2ccccc2)CC1 [Compound No. 13, 1-N-(4-diphenylmethylpiperazin-1-yl)carbonylethyl-2-phenylimidazole] |  |  | 3.67 ± 0.23 µM | 71.1 ± 3.3% | 54.7%
O=C(CCn1ccnc1-c1ccccc1)N1CCN(Cc2ccc(Cl)c(Cl)c2)CC1 [Compound No. 18, 1-N-[4-(3,4-dichlorobenzyl)piperazin-1-yl]carbonylethyl-2-phenylimidazole] |  |  | 9.36 ± 0.65 µM | 50 ± 0.6% | 39.3%
O=C(CCn1cnc(-c2ccccc2)c1)N1CCN(c2ccccc2F)CC1 [Compound No. 20, 1-N-[4-(2-fluorophenyl)piperazin-1-yl]carbonylethyl-4-phenylimidazole] |  |  | 22.3 ± 1.46 µM | 22.9 ± 1.4% | 45.2%
O=C(CCn1cnc(-c2ccccc2)c1)N1CCN(c2cccc(Cl)c2)CC1 [Compound No. 25, 1-N-[4-(3-chlorophenyl)piperazin-1-yl]carbonylethyl-4-phenylimidazole] |  |  | 4.35 ± 0.14 µM | 74.3 ± 1.3% | 63.7%
O=C(CCn1cnc(-c2ccccc2)c1)NCCN1CCN(C(c2ccccc2)c2ccccc2)CC1 [Compound No. 55, 1-N-[2-(4-diphenylmethylpiperazin-1-yl)ethyl]carbamoylethyl-4-phenylimidazole] |  |  | 8.66 ± 0.12 µM | 51.9 ± 0.1% | 49.6%
O=C(CCn1ccnc1-c1ccccc1)NCCN1CCN(c2ccc(F)cc2)CC1 [Compound No. 74, 1-N-{2-[4-(4-fluorophenyl)piperazin-1-yl]ethyl}carbamoylethyl-2-phenylimidazole] |  |  | 14.5 ± 0.68 µM | 37.6 ± 0.5% | 49.8%
